Biological target: T1, Human orexin receptor type 2 (Homo sapiens, UniProt O43614)
T1 sequence (O43614 1-444): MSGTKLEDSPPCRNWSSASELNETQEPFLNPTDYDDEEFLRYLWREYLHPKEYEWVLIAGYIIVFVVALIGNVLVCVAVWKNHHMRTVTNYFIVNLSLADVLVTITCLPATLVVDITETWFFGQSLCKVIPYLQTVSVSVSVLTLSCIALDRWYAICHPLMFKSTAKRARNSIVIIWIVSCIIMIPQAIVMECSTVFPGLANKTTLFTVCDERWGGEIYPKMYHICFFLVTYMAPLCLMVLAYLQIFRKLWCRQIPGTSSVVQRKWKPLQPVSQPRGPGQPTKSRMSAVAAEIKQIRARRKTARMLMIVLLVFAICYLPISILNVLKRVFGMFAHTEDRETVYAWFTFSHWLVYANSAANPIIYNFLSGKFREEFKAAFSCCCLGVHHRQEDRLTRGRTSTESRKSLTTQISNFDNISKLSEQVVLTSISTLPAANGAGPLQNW
Assay: Test Example 1: agonist activity for orexin receptor type 2 (aequorin luminescence, intracellular calcium mobilization)
Settings: compound 10 μm; CHO cells transiently expressing human orexin receptor type 2 and apoaequorin; relative percentage of luminescence for the luminescence (100%) of Orexin A (100 μM)

Compound: CC(C)c1ccc(-c2cccc(F)c2NC(=O)N2CCC(C)(c3cc(C4CC4)on3)CC2)cn1 [Example 59, 4-(5-cyclopropyl-1,2-oxazol-3-yl)-N-{2-fluoro-6-[6-(propan-2-yl)pyridin-3-yl]phenyl}-4-methylpiperidine-1-carboxamide]
- Agonist Activity (%): 158%

Compound: CCCN1CCCN(c2ccccc2NC(=O)N2CCC(C)(c3noc(C4CC4)n3)CC2)CC1 [Example 157, 4-(5-cyclopropyl-1,2,4-oxadiazol-3-yl)-4-methyl-N-[2-(4-propyl-1,4-diazepan-1-yl)phenyl]piperidine-1-carboxamide]
- Agonist Activity (%): 94%

Compound: Cc1ccc(C2CCN(C(=O)Nc3ccccc3C3CCN(C(C)C)CC3)CC2)cc1.Cl [Example 31, 4-(4-methylphenyl)-N-{2-[1-(propan-2-yl)piperidin-4-yl]phenyl}piperidine-1-carboxamide hydrochloride]
- Agonist Activity (%): 164%

Compound: CC(C)N1CCN(c2cccc(F)c2NC(=O)N2CCC(c3ccccn3)CC2)CC1 [Example 36, N-{2-fluoro-6-[4-(propan-2-yl)piperazin-1-yl]phenyl}-4-(pyridin-2-yl)piperidine-1-carboxamide]
- Agonist Activity (%): 123%

Compound: CC(C)N1C2CCC1CN(c1cccc(F)c1NC(=O)N1CCC(C)(c3noc(C4CC4)n3)CC1)C2 [Example 155, 4-(5-cyclopropyl-1,2,4-oxadiazol-3-yl)-N-{2-fluoro-6-[8-(propan-2-yl)-3,8-diazabicyclo[3.2.1]octan-3-yl]phenyl}-4-methylpiperidine-1-carboxamide]
- Agonist Activity (%): 55%

Compound: CC1(c2noc(C3CC3)n2)CCN(C(=O)Nc2c(Cl)cccc2C2=CCN(C3CCC3)CC2)CC1 [Example 131, N-[2-chloro-6-(1-cyclobutyl-1,2,3,6-tetrahydropyridin-4-yl)phenyl]-4-(5-cyclopropyl-1,2,4-oxadiazol-3-yl)-4-methylpiperidine-1-carboxamide]
- Agonist Activity (%): 150%

Compound: COCC(C)N1CCN(c2ccccc2NC(=O)N2CCC(c3ccc(C)cc3)CC2)CC1 (centres unmarked) [Example 126, N-{2-[4-(1-methoxypropan-2-yl)piperazin-1-yl]phenyl}-4-(4-methylphenyl)piperidine-1-carboxamide]
- Agonist Activity (%): 139%

Compound: Cc1ccc(C2CCN(C(=O)Nc3ccccc3N3CCN(C(C)C)C(C)C3)CC2)cc1 (racemic) [Example 28, Rac-4-(4-methylphenyl)-N-{2-[3-methyl-4-(propan-2-yl)piperazin-1-yl]phenyl}piperidine-1-carboxamide]
- Agonist Activity (%): 104%

Compound: CCN1CCN(c2ccccc2NC(=O)N2CCC(c3ccc(C)cc3)CC2)CC1 [Example 122, N-[2-(4-ethylpiperazin-1-yl)phenyl]-4-(4-methylphenyl)piperidine-1-carboxamide]
- Agonist Activity (%): 122%

Compound: CC1(c2noc(C3CC3)n2)CCN(C(=O)Nc2c(F)cccc2C2=CCOCC2)CC1 [Example 56, 4-(5-cyclopropyl-1,2,4-oxadiazol-3-yl)-N-[2-(3,6-dihydro-2H-pyran-4-yl)-6-fluorophenyl]-4-methylpiperidine-1-carboxamide]
- Agonist Activity (%): 44%

Compound: CC(C)c1ncc(-c2cccc(F)c2NC(=O)N2CCC(C)(c3noc(C4CC4)n3)CC2)cn1 [Example 72, 4-(5-cyclopropyl-1,2,4-oxadiazol-3-yl)-N-{2-fluoro-6-[2-(propan-2-yl)pyrimidin-5-yl]phenyl}-4-methylpiperidine-1-carboxamide]
- Agonist Activity (%): 144%

Compound: CC(C)N1CCN(c2cccc(Cl)c2NC(=O)N2CCC(C)(c3noc(C4CC4)c3Cl)CC2)CC1 [Example 103, 4-(4-chloro-5-cyclopropyl-1,2-oxazol-3-yl)-N-{2-chloro-6-[4-(propan-2-yl)piperazin-1-yl]phenyl}-4-methylpiperidine-1-carboxamide]
- Agonist Activity (%): 178%

Compound: Cc1ccc(C2CCN(C(=O)Nc3c(F)cccc3C3=CCN(C(C)CF)CC3)CC2)cc1 (centres unmarked) [Example 134, N-{2-fluoro-6-[1-(1-fluoropropan-2-yl)-1,2,3,6-tetrahydropyridin-4-yl]phenyl}-4-(4-methylphenyl)piperidine-1-carboxamide]
- Agonist Activity (%): 135%

Compound: CC(C)[C@@H]1CO[C@H](c2cccc(Cl)c2NC(=O)N2CCC(C)(c3noc(C4CC4)n3)CC2)CN1 (racemic) [Example 168, Rac-N-{2-chloro-6-[(2R,5R)-5-(propan-2-yl)morpholin-2-yl]phenyl}-4-(5-cyclopropyl-1,2,4-oxadiazol-3-yl)-4-methylpiperidine-1-carboxamide]
- Agonist Activity (%): 184%

Compound: CC(C)N1CCN(c2cccc(Cl)c2NC(=O)N2CCC(C)(c3noc([C@@H]4C[C@@H]4C)n3)CC2)CC1 [Example 118, N-{2-chloro-6-[4-(propan-2-yl)piperazin-1-yl]phenyl}-4-methyl-4-{5-[(1R,2S)-2-methylcyclopropyl]-1,2,4-oxadiazol-3-yl}piperidine-1-carboxamide]
- Agonist Activity (%): 149%

Compound: COc1cccc(N2CCN(C(C)C)CC2)c1NC(=O)N1CCC(c2ccc(C(F)(F)F)cc2)CC1 [Example 15, N-{2-methoxy-6-[4-(propan-2-yl)piperazin-1-yl]phenyl}-4-[4-(trifluoromethyl)phenyl]piperidine-1-carboxamide]
- Agonist Activity (%): 101%

Compound: CC(CF)N1CC=C(c2cccc(Cl)c2NC(=O)N2CCC(C)(c3noc(C4CC4)n3)CC2)CC1 (centres unmarked) [Example 142, N-{2-chloro-6-[1-(1-fluoropropan-2-yl)-1,2,3,6-tetrahydropyridin-4-yl]phenyl}-4-(5-cyclopropyl-1,2,4-oxadiazol-3-yl)-4-methylpiperidine-1-carboxamide]
- Agonist Activity (%): 130%

Compound: CC1(c2cc(C3CC3)on2)CCN(C(=O)Nc2c(F)cccc2-c2ccc(C(F)(F)F)nc2)CC1.Cl [Example 71, 4-(5-cyclopropyl-1,2-oxazol-3-yl)-N-{2-fluoro-6-[6-(trifluoromethyl)pyridin-3-yl]phenyl}-4-mehylpiperidine-1-carboxamide hydrochloride]
- Agonist Activity (%): 88%

Compound: Cc1ccc(C2CCN(C(=O)Nc3c(F)cccc3C3=CCN(C(C)C)C3)CC2)cc1 [Example 139, N-{2-fluoro-6-[1-(propan-2-yl)-2,5-dihydro-1H-pyrrol-3-yl]phenyl}-4-(4-methylphenyl)piperidine-1-carboxamide]
- Agonist Activity (%): 121%

Compound: CC(C)[C@H]1CO[C@H](c2cccc(Cl)c2NC(=O)N2CCC(C)(c3noc(C4CC4)n3)CC2)CN1 (racemic) [Example 167, Rac-N-{2-chloro-6-[(2R,5S)-5-(propan-2-yl)morpholin-2-yl]phenyl}-4-(5-cyclopropyl-1,2,4-oxadiazol-13-yl)-4-methylpiperidine-1-carboxamide]
- Agonist Activity (%): 183%

Compound: CC(C)N1CCN(c2cccc(Cl)c2NC(=O)N2CCC(C)(c3ncc(C4CC4)s3)CC2)CC1 [Example 101, N-{2-chloro-6-[4-(propan-2-yl)piperazin-1-yl]phenyl}-4-(5-cyclopropyl-1,3-thiazol-2-yl)-4-methylpiperidine-1-carboxamide]
- Agonist Activity (%): 157%

Compound: CCN1CCCN(c2ccccc2NC(=O)N2CCC(C)(c3noc(C4CC4)n3)CC2)CC1 [Example 156, 4-(5-cyclopropyl-1,2,4-oxadiazol-3-yl)-N-[2-(4-ethyl-1,4-diazepan-1-yl)phenyl]-4-methylpiperidine-1-carboxamide]
- Agonist Activity (%): 38%

Compound: Cc1ccc(C2CCN(C(=O)Nc3c(F)cccc3-c3cnn(C4CC4)c3)CC2)cc1 [Example 58, N-[2-(1-cyclopropyl-1H-pyrazol-4-yl)-6-fluoro-phenyl]-4-(4-methylphenyl)piperidine-1-carboxamide]
- Agonist Activity (%): 71%

Compound: CC(C)N1CCN(c2cccc(F)c2NC(=O)N2CCC(C)(C3CCCC3)CC2)CC1 [Example 91, 4-cyclopentyl-N-{2-fluoro-6-[4-(propan-2-yl)piperazin-1-yl]phenyl}-4-methylpiperidine-1-carboxamide]
- Agonist Activity (%): 195%

Compound: CC(C)N1CCN(c2cccc(Cl)c2NC(=O)N2CCC(C)(c3noc(C4CC4(C)C)n3)CC2)CC1 (centres unmarked) [Example 106, N-{2-chloro-6-[4-(propan-2-yl)piperazin-1-yl]phenyl}-4-[5-(2,2-dimethylcyclopropyl)-1,2,4-oxadiazol-3-yl]-4-methylpiperidine-1-carboxamide]
- Agonist Activity (%): 185%

Compound: COC(=O)c1cccc(N2CCN(C(C)C)CC2)c1NC(=O)N1CCC(c2ccc(C)cc2)CC1 [Example 38, methyl 2-{[4-(4-methylphenyl)piperidine-1-carbonyl]amino}-3-[4-(propan-2-yl)piperazin-1-yl]benzoate]
- Agonist Activity (%): 119%

Compound: CCOc1cccc(C2CCN(C(C)C)CC2)c1NC(=O)N1CCC(c2ccc(C)cc2)CC1 [Example 127, N-{2-ethoxy-6-[1-(propan-2-yl)piperidin-4-yl]phenyl}-4-(4-methylphenyl)piperidine-1-carboxamide]
- Agonist Activity (%): 145%

Compound: Cc1nc(C2(C)CCN(C(=O)Nc3c(F)cccc3N3CCN(C(C)C)CC3)CC2)no1 [Example 22, N-{2-fluoro-6-[4-(propan-2-yl)piperazin-1-yl]phenyl}-4-methyl-4-(5-methyl-1,2,4-oxadiazol-3-yl)piperidine-1-carboxamide]
- Agonist Activity (%): 97%

Compound: CC(C)c1ccc(-c2cccc(Cl)c2NC(=O)N2CCC(C)(c3cc(C4CC4)on3)CC2)cn1 [Example 69, N-{2-chloro-6-[6-(propan-2-yl)pyridin-3-yl]phenyl}-4-(5-cyclopropyl-1,2-oxazol-3-yl)-4-methylpiperidine-1-carboxamide]
- Agonist Activity (%): 129%

From patent US20240308960A1 (Sumitomo Pharma Co., Ltd., priority 2021, published 2024)
